Assay results published in US5225417A, “Opioid agonist compounds” (priority 1992, dated 1993).
Counter-ions that a name gives are not always drawn. Like-named read-outs stand apart in the source and are kept apart here.

Key:
[1] = molecular target: μ opioid receptor (Rattus norvegicus, UniProt P33535); assay: Opiate Binding Assay, μ receptor (3[H]-DAMGO displacement)
[2] = molecular target: δ opioid receptor (Rattus norvegicus, UniProt P33533); assay: Opiate Binding Assay, δ receptor (3[H]-DSLET displacement); details: for Mean IC50 μ/δ Ratio: ratio of mean IC50 values for μ and δ opioid receptors
[3] = system: mice or rats; assay: Tail Flick Assay; assay type: in vivo
Excerpt: The "Tail Flick Assay" uses thermal pain of transient duration, and is a test in which the pain threshold of the mice or rats being analyzed has not been altered. It is useful for evaluating the ability of a compound or drug to increase the animal's pain threshold (i.e. prolong response latencies), rather than to restore normal thresholds.
The heat-induced response to the Tail Flick Assay is a reflex reaction mediated at the level of the spinal cord.
Opiate compounds having clinical efficacy as analgesics generally increase tail flick latencies. Thus, morphine and codeine are generally determined to be active in this test.
The Tail Flick Assay was performed generally in the manner described by G. Woolfe et al., "The Evaluation of the Analgesic Action of Pethidine Hydrochloride (Demerol)," J. Pharmacol. Exp. Ther., 80, 300, (1944), F. D'Amour et al., "A Method for Determining Loss of Pain Sensation," J. Pharmacol. Exp. Ther., 72, 74, 300-307 (1941), and E. Drower et al., "The Antinociceptive Effects of Prostaglandin Antagonists in the Rat," European Journal of Pharmacology, 133, 249-256 (1987).
Male Charles River albino mice and male Charles River Sprague-Dawley rats weighing 20 to 30 g and 200 to 250 g, respectively, was employed in this assay.
Tail flick response latencies (defined as the time that elapsed between the onset of a high intensity beam of light and the reflex removal of the mouse or rat's tail) was measured before (baseline) and again at fixed intervals after subcutaneous or intracerebro-ventricular administration of one of the compounds of the invention, or after the administration of saline (controls). The cut-off latencies established to prevent tissue damage in the animals are 12 seconds or 14 seconds in the mouse and rat, respectively, in the Tail Flick Assay. The significance of any increase in tail flick response latency is determined using analyses of variance.
One way analyses of variance were used to determine the significance of the effect of the compounds of the invention on response latencies.
"Activity" or "Inactivity" was determined at a particular concentration of the compound by a significant increase in tail flick latency above normal latencies.
The numbers in parentheses are calculated ED50 values.

[4] = system: mice; assay: PBQ Writhing Assay; assay type: in vivo, Charles River male albino mice; details: for ED50: Mus musculus, 0.5 h
Excerpt: The Writhing Assay is one of the most widely-used experimental procedures for measuring the analgesic activity of different narcotic and nonnarcotic analgesic agents, and involves the continuous, chemically-induced pain of visceral origin to an animal, such as a mouse or rat. [Gyires et al., Arch. int. Pharmacodyn, 267, 131-140 (1984); C. Vander Wende et al., Fed. Proc., 15, 494 (1956); Koster et al. Fed. Proc. 18 412 (1959); and Witken et al., J. Pharmacol. exp. Ther., 133, 400-408 (1961).] Chemicals which may be used to induce this pain include phenylbenzoquinone (PBQ) and acetic acid. As a result of the chemical irritation to the animal, a characteristic stretching and writhing of the animal (dorsiflexion of the animal's back, extension of its hindlimbs and the strong contraction of its abdominal musculature) will generally occur. […] Drugs which reduce the number of writhes of the animal appear to restore the normal nociceptive threshold of the animal.
Charles River male albino mice, weighing 20 to 30 grams were used in this assay.
Thirty minutes after subcutaneous or intragastric administration to ten mice of either 10 mg or 30 mg per kilogram of body weight of a compound of the present invention ("test compound"), […] of body weight of a 0.025% w/v solution of PBQ was injected intraperitoneally into each mouse. Ten mice which were given saline in place of a test compound of the invention were used as a control group.
Five minutes later, each mouse was individually placed into a glass beaker for observation, and the number of writhes occurring during the following ten-minute period was counted.
A test compound was considered to be "active" in this assay (to have produced analgesia in a mouse) if, after the administration of the compound to the mouse, the number of writhes elicited by a mouse injected with PBQ was equal to, or less than, one-half the median number of writhes recorded for the saline-treated control group of mice that day, as described by Taber in "Predictive Value of Analgesic Assays in Mice and Rats," Advances in Biochemical Psychopharmacology, 8, 191 (1974).
The standard initial screening doses of a test compound employed in this assay were 10 and/or 30 […] for both routes of administration.

[5] = rat forebrain membranes, 3[H]-DAMGO 2.0 nM, 37° C., pH 7.4
[6] = sc, subcutaneous, mice, 30 min before PBQ, read-out: PBQ writhing assay ED50, S.C.
[7] = read-out: Mean IC50 Value, δ, rat forebrain membranes, 3[H]-DSLET 1.0 nM, 37° C., pH 7.4

Chain of δ opioid receptor (P33533 whole entry): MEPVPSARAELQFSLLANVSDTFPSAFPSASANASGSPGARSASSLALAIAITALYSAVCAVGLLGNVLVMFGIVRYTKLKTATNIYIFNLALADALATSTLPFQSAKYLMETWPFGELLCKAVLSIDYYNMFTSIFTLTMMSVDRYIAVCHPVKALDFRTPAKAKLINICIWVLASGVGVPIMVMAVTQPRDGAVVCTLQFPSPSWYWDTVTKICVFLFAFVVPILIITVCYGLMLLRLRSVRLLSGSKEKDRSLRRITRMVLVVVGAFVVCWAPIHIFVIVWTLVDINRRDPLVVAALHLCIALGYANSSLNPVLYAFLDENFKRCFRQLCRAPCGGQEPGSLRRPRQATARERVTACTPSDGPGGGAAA
Chain of μ opioid receptor (P33535 whole entry): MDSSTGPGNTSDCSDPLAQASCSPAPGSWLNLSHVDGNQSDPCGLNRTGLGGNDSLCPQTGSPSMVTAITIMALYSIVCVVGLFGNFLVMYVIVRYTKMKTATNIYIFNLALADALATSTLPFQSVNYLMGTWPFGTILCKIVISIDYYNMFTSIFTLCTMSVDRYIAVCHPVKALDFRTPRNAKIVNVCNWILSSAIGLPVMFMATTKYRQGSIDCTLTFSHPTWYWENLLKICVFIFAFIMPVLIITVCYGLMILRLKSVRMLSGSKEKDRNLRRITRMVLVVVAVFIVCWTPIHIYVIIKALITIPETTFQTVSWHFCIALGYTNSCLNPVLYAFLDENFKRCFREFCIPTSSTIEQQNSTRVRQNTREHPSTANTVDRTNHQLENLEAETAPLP

Compound	IC50 [1]	IC50 [2]	Mean IC50 μ/δ Ratio [2]	further results
CN1CC[C@]23c4c5ccc(O)c4O[C@H]2c2oc4ccccc4c2C[C@@]3(OCc2ccccc2)[C@H]1C5 (relative stereo) [Example X, 6,7,8,8a,9,14bβ-hexahydro-7-methyl-8aβ-(phenylmethoxy)-4,8(R,α)-methano-4bS*-5H-bisbenzofuro[3,2-e:2',3'-g]isoquinolin-1-ol, monohydrochloride]	356 nM	8 nM	44	
Oc1ccc2c3c1O[C@H]1c4oc5ccccc5c4C[C@@]4(O)[C@@H](C2)N(Cc2ccccc2)CC[C@]314 (relative stereo) [Example XVI, 6,7,8,14bβ-Tetrahydro-7-(2-phenylmethyl)-4,8 (R,α)-methano-4bS*-5H-bisbenzofuro [3,2-e:2',3'-g]isoquinoline-1,8aβ(9H)-diol]				Mean IC50 Value, μ [1, 5]: inactive; inhibition at 0.05 µM ([2]; read-out: Percent Displacement, δ at 50 nM): 50%
Oc1ccc2c3c1O[C@H]1c4oc5ccccc5c4C[C@@]4(O)[C@@H](C2)N(Cc2ncc[nH]2)CC[C@]314 (relative stereo) [Example XV, 5,6,7,8,14,14bβ-Hexahydro-(1H-imidazol-2-ylmethyl)-4,8(R,α)-methano-4bS*-benzofuro[2,3-a]pyrido [4,3-b]carbazole-1,8aβ(9H)-diol, hydrochloride]		79.2 nM		Tail flick activity, intracerebroventricular ([3]; intracerebroventricular): ~ 10 nmoles; active dose in tail flick, intracerebroventricularly ([3]; intracerebroventricular): ca. 10 nmoles; Tail flick activity, subcutaneous (active at) ([3]; subcutaneous): inactive; Mean IC50 Value, μ [1, 5]: inactive
O=C(O)CN1CC[C@]23c4c5ccc(O)c4O[C@H]2c2oc4ccccc4c2C[C@@]3(O)[C@H]1C5 (relative stereo) [Example VIII, 5,6,8,8a,9,14bβ-Hexahydro-1,8aβ-dihydroxy-4,8 (R,α)-methano-4bS*-7H-bisbenzofuro[3,2-e:2',3'-g]isoquinoline-7-acetic acid, hydrochloride]	4000 nM	160 nM	25	
CC(=O)Oc1ccc2c3c1O[C@H]1c4oc5ccccc5c4C[C@@]4(OC(C)=O)[C@@H](C2)N(C#N)CC[C@]314 (relative stereo) [Example I, 1,8aβ-Bis(acetyloxy)-5,6,8,8a,9,14bβ-hexahydro-4,8(R,α)-methano-4bS*-7H-bisbenzofuro [3,2-e:2',3'-g]isoquinoline-7-carbonitrile]				ED50 [4, 6]: 2.4 mg/kg; PBQ writhing assay ED50, I.G. ([4]; intragastric, mice, 30 min before PBQ): inactive; inhibition at 0.1 µM ([2]; read-out: Percent Displacement, δ at 100 nM): 14%
Oc1ccc2c3c1O[C@H]1c4oc5ccccc5c4C[C@@]4(O)[C@@H](C2)N(CCc2ccccc2)CC[C@]314 (relative stereo) [Example VII, 6,7,8,14bβ-tetrahydro-7-(2-phenylethyl)-4,8(R,α)-methano-4bS*-5H-bisbenzofuro [3,2-e:2',3'-g]isoquinoline-1,8aβ(9H)-diol, hydrochloride]		34.5 nM		inhibition at 1 µM ([1]; read-out: Percent Displacement, μ at 1 μM): 35%
CN1CC[C@]23c4c5ccc(O)c4O[C@H]2c2[nH]c4c(I)cccc4c2C[C@@]3(O)[C@H]1C5 (relative stereo) [Example XII, 5,6,7,8,14,14bβ-Hexahydro-13-iodo-7-methyl-4,8 (R,α)-methano-4bS*-benzofuro[2,3-a]pyrido[4,3-b]carbazole-1,8aβ(9H)-diol, monohydrochloride]	101 nM	9.5 nM	10.6	
CCOC(=O)c1ccc2[nH]c3c(c2c1)C[C@@]1(O)[C@H]2Cc4ccc(O)c5c4[C@@]1(CCN2C)[C@H]3O5 (relative stereo) [Example VI, Ethyl 5,6,7,8,8a,9,14,14bβ-Octahydro1,8αP-dihydroxy-7-methyl-4,8(R,α)methano-4bS*-benzofuro [2,3-a]pyrido[4,3-b]carbazole-11-carboxylate, monohydrochloride]			3.8	IC50 ([1]; read-out: Mean IC50 Value, μ, rat forebrain membranes, 3[H]-DAMGO 2.0 nM, 37° C., pH 7.4): 248 nM; IC50 [2, 7]: 65 nM
Oc1ccc2c3c1O[C@H]1c4oc5ccccc5c4C[C@@]4(O)[C@@H](C2)NCC[C@]314 (relative stereo) [Example II, 6,7,8,14bβ-Tetrahydro-4,8(R,α)-methano-4bS*-5H-bisbenzofuro[3,2-e:2',3'-g]isoquinoline-1,8aβ(9H)-diol]	291 nM	6.5 nM	45	Number of mice in 10 exhibiting inhibition of writhing, I.G. ([4]; intragastric, dose not stated in table (screening doses 10 and/or 30 mpk)): 4/10; Number of mice in 10 exhibiting inhibition of writhing, S.C. ([4]; subcutaneous, dose not stated in table (screening doses 10 and/or 30 mpk)): 4/10; Percent Displacement, μ ([1]; μ receptor, 3[H]-DAMGO 2.0 nM, test concentration not given): 2
CN1CC[C@]23c4c5ccc(O)c4O[C@H]2c2[nH]c4ccc(C(=O)O)cc4c2C[C@@]3(O)[C@H]1C5 (relative stereo) [Example V, 5,6,7,8,8a,9,14,14bβ-Octahydro-1,8aβ-dihydroxy-7-methyl-4,8(R,α)-methano-4bS*-benzofuro [2,3-a]pyrido [4,3-b]carbazole-11-carboxylic acid, monohydrochloride]	810 nM	660 nM	1.2	ED50 ([4]; po, intragastric, mice, 30 min before PBQ, read-out: PBQ writhing assay ED50, I.G.): 3.4 mg/kg; ED50 [4, 6]: 1.3 mg/kg
OCc1ccc(CN2CC[C@]34c5c6ccc(O)c5O[C@H]3c3oc5ccccc5c3C[C@@]4(O)[C@H]2C6)o1 (relative stereo) [Example XIII, 5,6,7,8,14,14bβ-Hexahydro-7-[[5-(hydroxymethyl)-2-furanyl]methyl]-4,8(R,α)-methano-4b S*-benzofuro[2,3-a]pyrido[4,3-b]carbazole-1,8aβ(9H)-diol, monohydrochloride]		~100 nM		Mean IC50 Value, μ [1, 5]: inactive
CC(C)=CCN1CC[C@]23c4c5ccc(O)c4O[C@H]2c2oc4ccccc4c2C[C@@]3(O)[C@H]1C5 (relative stereo) [Example III, 6,7,8,14bβ-tetrahydro-7-(3-methyl-2-butenyl)-4,8 (R,α)-methano-4bS*-5H-bisbenzofuro[3,2-e:2',3'-g]isoquinoline-1,aβ(9H)-diol, monohydrochloride]	4670 nM	51.1 nM	91	
7-(3-Furanylmethyl)-5,6,7,8,14,14bβ-hexahydro-4,8(R,α)-methano-4bS*-benzofuro[2,3-a]pyrido [4,3-b]carbazole-1,8aβ(9H)-diol, hydrochloride [Example XIV]				Mean IC50 Value, μ [1, 5]: inactive; IC50 [2, 7]: 31.8 nM
CCOC(=O)CN1CC[C@]23c4c5ccc(O)c4O[C@H]2c2oc4ccccc4c2C[C@@]3(O)[C@H]1C5 (relative stereo) [Example IV, Ethyl 5,6,8,8a,9,14bβ-hexahydro-1,8aβ-dihydroxy-4,8(R,α)-methano-4bS*-7H-bisbenzofuro [3,2-e:2',3'-g]isoquinoline-7-acetate, hydrochloride]	> 10000 nM	11.8 nM	> 850	
